The values that follow come from patent US20040014701A1, “Inhibiting retrotransposon and retroviral integration by targeting the atm pathway” (priority 2003, published 2004).

The structures appear in SMILES notation.

For this data set, the system named is NIH3T3 cells. Nature of the data set: MTS formazan dye reduction cytotoxicity/cell viability assay. As to the method:
Standard cytotoxicity/cell viability assays were performed using the CellTiter-96 Aqueous one solution MTS cell proliferation assay (Promega Inc) and using the standard conditions detailed in the manufacturer's instructions.
In addition, we also wanted to ensure that the observations made using the LUCIA were not due to any effects on luciferase expression or on the luciferase assay itself. For this reason, we looked at the effect of adding wortmannin and LY294002 to NIH3T3 cells containing the already integrated R229-Luc provirus.

For `O=c1cc(N2CCOCC2)oc2c(-c3ccccc3)cccc12` [LY294002], the “cellular cytotoxicity (percentage of viable cells remaining after drug treatment)” value (mouse) is on record as “slight cytotoxic effect at high concentrations”.
In the case of `COC[C@H]1OC(=O)c2coc3c2[C@@]1(C)C1=C(C3=O)[C@@H]2CCC(=O)[C@@]2(C)C[C@H]1OC(C)=O` [wortmannin], the “cellular cytotoxicity (percentage of viable cells remaining after drug treatment)” value (MTS assay, concentrations used in LUCIA, FIG. 4C) is “slight cytotoxic effect at high concentrations”.
